Measured values taken from patent publication US11633379B2, “Methods of inhibiting PCSK9” (TRUSTEES OF DARTMOUTH COLLEGE, priority 2017, dated 2023).
Where two headings read alike, the source gives them in different places.

Assays:
PCSK9 = assay: Intracellular PCSK9 protein in HepG2 cells (western blot); format: cell-based, human; conditions: FIG. 1A
Experimental: To study whether 34 affect intracellular PCSK9 levels we used 1×10^6 HepG2 cells in 6-well culture plates, followed by incubation with media+0.1% DMSO or increasing concentration (0.2-50 uM) of 34 in 0.1% DMSO for 24 hours. After 24 hours media was aspirated, cells were washed with HBSS followed by protein extraction using commercially available RIPA buffer (SIGMA-ALDRICH, catalog #20-188). Protein extracts (20 μg) were used for immunodetection of intracellular PCSK9 (western blot analysis) with a commercially available primary antibody against PCSK9 (MBL-international, catalog # CY-1037), HRP-conjugated secondary antibody (SIGMA-ALDRICH, catalog #12-348) visualized using an enhanced chemiluminescence (ECL) solution (Cumaric acid, Luminol and hydrogen peroxide), developed in a LiCore imager.

PCSK9 mRNA = assay: PCSK9 transcription in HepG2 cells (real-time PCR); format: cell-based, human; conditions: FIG. 1B
Experimental: To study whether 34 affect PCSK9 mRNA levels we used 1×10^6 HepG2 cells in 6-well culture plates, followed by incubation with media+0.1% DMSO or increasing concentration (0.2-50 μM) of 34 in 0.1% DMSO for 24 hours. After 24 hours media was aspirated, cells were washed with HBSS followed by RNA extraction kit (RNeasy, QIAGEN cat #74-104). mRNA was reversed transcribed to cDNA using commercially available kit (ThermoFisher, cat #4368814) and analyzed using real-time PCR for PCSK9 transcript levels using the relative expression method known as delta-delta CT.

LDLR [1] = assay: LDLR levels in HepG2 cells (western blot); format: cell-based, human; conditions: 5 μM, FIG. 3
Description: Protein extracts (IMO were used for immunodetection of intracellular LDLR (western blot analysis) with a commercially available primary antibody against LDLR (ABCAM, catalog #14056), HRP-conjugated secondary antibody (ABCAM, catalog #97135) visualized using an enhanced chemiluminescence (ECL) solution (Cumaric acid, Luminol and hydrogen peroxide), developed in a LiCore imager. See FIG. 3.

recombinant PCSK9 = recombinant PCSK9 (Homo sapiens, UniProt Q8NBP7); assay: PCSK9 detection interference (ELISA); conditions: FIG. 5A
Experimental: To study whether 34 directly interfere with PCSK9 detection we used recombinant PCSK9 (30 ng/ml) was mixed with increasing concentration (0.2-50 μM) of 34 in 0.1% DMSO followed by detection of PCSK9 using commercially available ELISA kit (MBL-international, catalog # CY-8079) following the manufacturer instruction.

[2] = biological target: T1, PCSK9 binding to LDLR (EGF-A domain) (Homo sapiens, UniProt Q8NBP7); assay: PCSK9-LDLR interaction ELISA; conditions: FIG. 5B
T1 construct: purchased MBL-international CY-8150
Experimental: To study whether increasing concentrations of 34 (0.2-50 μM) directly interfere with PCSK9-LDLR interaction we used a commercially available ELISA kit (MBL-international, catalog # CY-8150) following the manufacturer instruction.

albumin = assay: Albumin secretion, HepG2 (ELISA); format: cell-based, human
Experimental: The collected media was analyzed for albumin levels using commercially available ELISA kit (ABCAM, catalog #108788) following the manufacturer instruction.

AST = system: AST; parameters: species or system mice; conditions: mouse, in vivo, po
Experimental: 1) Single-dose experiments: mice were administered (oral gavage or intra-peritoneal injection) with 200 μl of 34 (30 mg/kg or 100 mg/kg) in 0.1% Tween 80+1% hydroxyethyl cellulose (HEC) in buffered (PBS pH7.4) solution. After 34 administration, 50-70 μl of blood was collected from the retro-orbital plexus every 4-6 hours (for a total of 24 hours). Blood was left to clot at room temperature for 20 min, followed by serum separation (spin at 1000 g for 10 min). Serum was analyzed as specified in the “Serum analyses” section. 2) Daily dosage experiments: mice were administered daily oral gavage with 200 μl of 34 (100 mg/kg) in 0.1% Tween80+1% hydroxyethyl cellulose (HEC) in buffered (PBS pH7.4) solution. 50-70 μl of blood was collected from the retro-orbital plexus on day 3 and day 5 after 34 administration, on day 5 mice were euthanized and liver were collected and analyzed as mentioned below under the “Liver analyses” section. Blood was left to clot at room temperature for 20 min, followed by serum separation (spin at 1000 g for 10 min). Serum was analyzed as described below: AST activity—using commercially available activity assay (SIGMA-ALDRICH, catalog # MAK055) following the manufacturer instruction.

LDLR [3] = assay: Hepatic LDLR levels in mice (western blot); format: in vivo; conditions: livers on day 5 after daily oral 100 mg/kg/day, FIG. 14B
Experimental: 2) Daily dosage experiments: mice were administered daily oral gavage with 200 μl of 34 (100 mg/kg) in 0.1% Tween80+1% hydroxyethyl cellulose (HEC) in buffered (PBS pH7.4) solution. 50-70 μl of blood was collected from the retro-orbital plexus on day 3 and day 5 after 34 administration, on day 5 mice were euthanized and liver were collected and analyzed as mentioned below under the “Liver analyses” section. Blood was left to clot at room temperature for 20 min, followed by serum separation (spin at 1000 g for 10 min). Serum was analyzed as described below: Hepatic LDLR levels—To study whether 34 affect hepatic LDLR levels we used 10 mg of PBS-flushed livers. Livers were minced and proteins were extracted using available RIPA buffer (SIGMA-ALDRICH, catalog #20-188). Protein extracts (5 μgr) were used for immunodetection of intracellular LDLR (western blot analysis) with a commercially available primary antibody against LDLR (ABCAM, catalog #14056), HRP-conjugated secondary antibody (ABCAM, catalog #97135) visualized using an enhanced chemiluminescence (ECL) solution (Cumaric acid, Luminol and hydrogen peroxide), developed in a LiCore imager.

HepG2 cells = assay: LDL-cholesterol uptake in HepG2 cells (3H-cholesterol); format: cell-based, human; conditions: 10 uM for 24 hours, FIG. 16
Experimental: To determine whether Compound 34 increases LDL-cholesterol uptake, LDL was isolated from human plasma using ultracentrifugation and the cholesterol content of the particle was radiolabeled with 3H-cholesterol. Hepatoma cells (HepG2) were cultured (0.25×10^6 cell/well in a 24-well plate) with or without 10 uM of B004 (compound 34) for 24 hours in DMEM. Radiolabeled LDL-cholesterol (LDL-c) was added to the cells for 4 hours. Cells were washed 3 times with PBS and left to air dry. 500 μl of isopropanol was added to each well and incubate with shaking at room temperature for 3 hours in a sealed container. 50 μl of the isopropanol was placed into a scintillation vial together with 4.5 ml of scintillation liquid cocktail (Scintiverse BD). 3H-cholesterol levels were read using a beta emission radioactive counter.

T1 sequence (Q8NBP7 153-692): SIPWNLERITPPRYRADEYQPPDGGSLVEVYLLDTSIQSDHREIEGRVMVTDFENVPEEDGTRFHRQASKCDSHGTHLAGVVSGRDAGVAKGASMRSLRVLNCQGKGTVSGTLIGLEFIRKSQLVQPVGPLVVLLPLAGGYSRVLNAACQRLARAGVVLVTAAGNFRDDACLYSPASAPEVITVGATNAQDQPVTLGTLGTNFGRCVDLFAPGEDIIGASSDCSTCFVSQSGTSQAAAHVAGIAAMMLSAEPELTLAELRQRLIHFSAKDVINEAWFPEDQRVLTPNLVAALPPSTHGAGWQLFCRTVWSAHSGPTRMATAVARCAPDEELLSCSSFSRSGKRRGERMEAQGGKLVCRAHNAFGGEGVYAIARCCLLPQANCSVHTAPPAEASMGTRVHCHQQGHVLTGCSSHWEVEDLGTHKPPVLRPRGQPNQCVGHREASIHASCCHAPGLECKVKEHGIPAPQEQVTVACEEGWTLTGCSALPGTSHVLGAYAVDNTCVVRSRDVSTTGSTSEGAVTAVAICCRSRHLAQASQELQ
T1 sequence (Q8NBP7 31-152 partner limits assumed): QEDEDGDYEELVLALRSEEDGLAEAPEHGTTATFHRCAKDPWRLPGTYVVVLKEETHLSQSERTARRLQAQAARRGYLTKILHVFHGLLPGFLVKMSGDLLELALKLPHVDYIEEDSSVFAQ
Chain of recombinant PCSK9 (Q8NBP7 153-692): as the sequence (Q8NBP7 153-692) above

## CC(=O)Oc1ccc(C2CC3(CCCCC3)c3c2[nH]c2ccccc32)cc1 (centres unmarked) [Compound 34]
PCSK9
  intracellular PCSK9, pro-protein and mature forms: reduces levels of both the pro-protein and the mature forms of PCSK9 in a dose-dependent manner
PCSK9 mRNA
  PCSK9 mRNA levels: reduces levels of PCSK9 mRNA in a dose-dependent manner
LDLR [1]
  increase in LDLR protein levels: 21%
Recombinant PCSK9
  interference with PCSK9 detection: does not interfere with PCSK9 detection
[2]
  PCSK9 binding to LDLR (EGF-A domain): does not affect PCSK9 binding to LDLR (EGF-A domain)
albumin; 20 μM and 50 μM, HepG2, result of increased cell death
  secreted albumin: Reduction in secreted and intracellular albumin
albumin; up to 10 μM, 40 hours of incubation, HepG2, FIG. 6A
  secreted albumin: no changes in secreted or intracellular albumin
AST; 100 mg/kg
  liver function (measured as AST activity): not affected
AST; 100 mg/kg/day
  liver function (measured as AST activity): not affected
LDLR [3]
  increase in hepatic LDLR: 16.2%
HepG2 cells
  LDL-cholesterol uptake: increases LDL-cholesterol uptake in HepG2 cells
